# Active and inactive are the calls of the source. No cut-off for these calls is given here.
# Legend:
# [1] = test system: Mycobacterium tuberculosis; experiment: Antituberculosis activity against Mycobacterium tuberculosis H37Rv assessed as complete growth inhibition at 20 uM after 5 days; assay type: functional; details: 120 h
# [2] = test system: Mycobacterium tuberculosis; experiment: Antituberculosis activity against Mycobacterium tuberculosis H37Rv assessed as complete growth inhibition after 5 days; assay type: functional; details: 120 h
# [3] = test system: Mycobacterium tuberculosis; experiment: Antituberculosis activity against Mycobacterium tuberculosis H37Rv assessed as complete growth inhibition after 5 days using solid media by serial proportion method; assay type: functional; details: 120 h
# [4] = test system: Mycobacterium tuberculosis; experiment: Antituberculosis activity against Mycobacterium tuberculosis H37Rv assessed as complete growth inhibition after 5 days using liquid media; assay type: functional; details: 120 h
# Rattus norvegicus [5] = experiment: AUC in Sprague-Dawley rat at 10 mg/kg, po after 24 hrs; assay type: ADME, organism-based, Plasma; set-up: time < 24 hr, dose 10 mg/kg, route oral; details: in vivo
# Rattus norvegicus [6] = experiment: Volume of distribution at steady state in Sprague-Dawley rat at 10 mg/kg, po after 24 hrs; assay type: ADME, organism-based; set-up: dose 10 mg/kg, route oral; details: in vivo
# [7] = Oral bioavailability in Sprague-Dawley rat at 10 mg/kg after 24 hrs; assay type: ADME, organism-based; details: in vivo
# [8] = test system: Mycobacterium tuberculosis; experiment: Antituberculosis activity against Mycobacterium tuberculosis H37Rv assessed as complete growth inhibition at 56 uM in presence of hemin; assay type: functional, organism-based
# [9] = test system: Mycobacterium tuberculosis; experiment: Antituberculosis activity against Mycobacterium tuberculosis H37Rv assessed as complete growth inhibition at 56 uM in absence of hemin; assay type: functional, organism-based
# [10] = test system: Mycobacterium tuberculosis; experiment: Antituberculosis activity against Mycobacterium tuberculosis H37Rv grown in liquid media using glucose as carbon source assessed as growth inhibition; assay type: functional
# [11] = test system: Mycobacterium tuberculosis; experiment: Bactericidal activity against Mycobacterium tuberculosis H37Rv under aerobic and replicating condition assessed as reduction in viability at 124 uM measured over 7 days by time kill kinetic study relative to control; assay type: functional
# [12] = test system: Mycobacterium tuberculosis; experiment: Antituberculosis activity against Mycobacterium tuberculosis H37Rv grown in liquid media using palmitate as carbon source assessed as growth inhibition; assay type: functional
# [13] = test system: Mycobacterium tuberculosis; experiment: Antituberculosis activity against Mycobacterium tuberculosis H37Rv grown in solid media assessed as growth inhibition by serial proportion method; assay type: functional
# [14] = test system: Mycobacterium tuberculosis; experiment: Bactericidal activity against Mycobacterium tuberculosis H37Rv under non-replicating condition assessed as reduction in viability at 124 uM measured over 7 days by time kill kinetic study relative to control; assay type: functional
SMILES,inhibition at 20 µM [1] [%],MIC99 [2] [µM],further results
Fc1ccc(CNc2nc(N3CCCCC3)nc3ccsc23)cc1,< 30,292,
OCC1CCN(c2nc(NCc3ccc(F)cc3)c3ccccc3n2)CC1,< 30,,
Cc1nc(N2CCCCC2)nc(NCc2ccc(F)cc2)c1C,< 30,,
Cc1cccc2nc(N3CCCCC3)nc(NCc3ccc(F)cc3)c12,98,,
COc1ccc2nc(N3CCCCC3)nc(NCc3ccc(F)cc3)c2c1,97,,
Fc1ccc(CNc2nc(N3CCCCC3)nc3ncccc23)cc1,37,74,
Fc1ccc(CNc2nc(N3CCCCC3)nc3sccc23)cc1,,73,
CC(C)CNc1nc(N2CCCCC2)nc2ccccc12,37,25,
O=C(O)CC1CCCCN1c1nc(NCc2ccc(F)cc2)c2ccccc2n1 (stereo not given),< 30,,
CN(C)C1CCN(c2nc(NCc3ccc(F)cc3)c3ccccc3n2)CC1,< 30,,
NC1CCN(c2nc(NCc3ccc(F)cc3)c3ccccc3n2)CC1,< 30,,
CNc1nc(N2CCCCC2)nc2ccccc12,< 30,206,
CNC1CCN(c2nc(NCc3ccc(F)cc3)c3ccccc3n2)CC1,33,,
Fc1ccc(CNc2nc(C(F)(F)F)nc3ccccc23)cc1,< 30,,
Fc1ccc(CSc2nc(N3CCCCC3)nc3ccccc23)cc1,< 30,282,
Fc1ccc(CNc2nc(N3CCCCC3)nc3cnccc23)cc1,59,30,
Ic1cccc(CNc2nc(N3CCCCC3)nc3ccccc23)c1,98,,
Fc1ccc(CNc2nc(N3CCCCC3)nc3ccccc23)c(F)c1,97,,
COc1ccc(CNc2nc(N3CCCCC3)nc3ccccc23)cc1Cl,98,,
Fc1ccc(CNc2nc(N3CCCCC3)nc3[nH]cnc23)cc1,< 30,,
c1ccc2nc(N3CCCCC3)ncc2c1,< 30,469,
Clc1ccc(CNc2nc(N3CCCCC3)nc3ccccc23)cc1,99,,

SMILES,inhibition at 20 µM [1] [%],MIC99 [2] [µM],further results
Fc1cccc(CNc2nc(N3CCCCC3)nc3ccccc23)c1,98,,
CC1CC(C)CN(c2nc(NCc3ccc(F)cc3)c3ccccc3n2)C1 (stereo not given),< 30,,
Fc1ccc(CNc2nc(-c3ccccc3)nc3ccccc23)cc1,< 30,76,
COc1cccc2c(NCc3ccc(F)cc3)nc(N3CCCCC3)nc12,83,,
Fc1ccccc1CNc1nc(N2CCCCC2)nc2ccccc12,97,,
FC(F)(F)c1ccc(CCNc2nc(N3CCCCC3)nc3ccccc23)cc1,97,5.7,
Fc1ccc(CNc2cc(N3CCCCC3)nc3ncnn23)cc1,< 30,,
Fc1ccc2c(c1)CCN(c1nc(N3CCCCC3)nc3ccccc13)C2,94,,
Fc1ccc(Nc2nc(N3CCCCC3)nc3ccccc23)cc1,< 30,39,
Fc1ccc(CNc2nc(N3CCCCC3)ncc2Cc2ccccc2)cc1,68,26,
CO[C@H]1/C=C/O[C@@]2(C)Oc3c(C)c(O)c4c(O)c(c(/C=N/N5CCN(C)CC5)c(O)c4c3C2=O)NC(=O)/C(C)=C\C=C\[C@H](C)[C@H](O)[C@@H](C)[C@@H](O)[C@@H](C)[C@H](OC(C)=O)[C@@H]1C [RIFAMPIN],100,,MIC99 [3]: 0.013 µM; MIC99 [4]: 0.004 µM
OC1CCN(c2nc(NCc3ccc(F)cc3)c3ccccc3n2)CC1,< 30,,
Cc1cccc(CNc2nc(N3CCCCC3)nc3ccccc23)c1,99,,
Fc1ccc(COc2nc(N3CCCCC3)nc3ccccc23)cc1,< 30,296,
Fc1ccc(CNc2nc(N3CCCCC3)nc3c(Cl)cccc23)cc1,< 30,,
Cc1cnc(N2CCCCC2)nc1NCc1ccc(F)cc1,< 30,83,
Fc1ccc(CNc2cc(Cc3ccccc3)nc(N3CCCCC3)n2)cc1,84,27,
Fc1ccc(CNc2nc(N3CCCCC3)nc3cccc(Cl)c23)cc1,< 30,,
c1ccc(CNc2nc(N3CCCCC3)nc3ccccc23)cc1,96,9.2,
Fc1ccc(CCc2nc(N3CCCCC3)nc3ccccc23)cc1,< 30,,
Clc1ccc(CNc2nc(N3CCCCC3)nc3ccccc23)cc1Cl,98,,
O=C(O)CNC1CCN(c2nc(NCc3ccc(F)cc3)c3ccccc3n2)CC1,< 30,,

SMILES,inhibition at 20 µM [1] [%],MIC99 [2] [µM],further results
Fc1ccc(CNc2nc(N3CCNCC3)nc3ccccc23)cc1,< 30,148,
Fc1ccc(CNc2nc(N3CCCCC3)nc3ccc(Cl)cc23)cc1,49,,
O=[N+]([O-])c1cccc2c(NCc3ccc(F)cc3)nc(N3CCCCC3)nc12,< 30,,
Cc1ccc2nc(N3CCCCC3)nc(NCc3ccc(F)cc3)c2c1,99,,
Cn1ccc2c(NCc3ccc(F)cc3)nc(N3CCCCC3)nc21,< 30,,
Fc1ccc(CNc2ncnc3ccccc23)cc1,< 30,99,
CN(C)c1nc(NCc2ccc(F)cc2)c2ccccc2n1,40,34,
CC1CCN(c2nc(NCc3ccc(F)cc3)c3ccccc3n2)CC1,97,,
O=C(O)C1CCN(c2nc(NCc3ccc(F)cc3)c3ccccc3n2)CC1,< 30,,
Cc1cc(NCc2ccc(F)cc2)nc(N2CCCCC2)n1,< 30,83,
Clc1ccc(CNc2nc(N3CCCCC3)nc3ccccc23)c(Cl)c1,98,,
Fc1ccc(CNc2nc(N3CCCCC3)nc3cccc(F)c23)cc1,< 30,,
Cc1nc(NCc2ccc(F)cc2)c2ccccc2n1,< 30,94,
O=C(O)C(Nc1cc(N2CCCCC2)nc2ccccc12)c1ccc(F)cc1 (stereo not given),< 30,,
COc1ccc(CNc2nc(N3CCCCC3)nc3ccccc23)cc1,97,,
c1ccc2c(N3CCCCC3)nc(N3CCCCC3)nc2c1,< 30,,
Nc1nc(NCc2ccc(F)cc2)c2ccccc2n1,< 30,93,
Nc1ccc(CNc2nc(N3CCCCC3)nc3ccccc23)cc1,< 30,,
Fc1ccc(CNc2nc(N3CCCCC3)nc3cc(Cl)ccc23)cc1,51,,
FC(F)(F)Oc1ccc(CNc2nc(N3CCCCC3)nc3ccccc23)cc1,95,,
Cc1ccc(CNc2nc(N3CCCCC3)nc3ccccc23)cc1,98,,
COc1cc2nc(N3CCCCC3)nc(NCc3ccc(F)cc3)c2cc1OC,92,25,

SMILES,inhibition at 20 µM [1] [%],MIC99 [2] [µM],further results
Nc1ccc(N2CCN(c3nc(NCc4ccc(F)cc4)c4ccccc4n3)CC2)cc1,94,,
Fc1ccc(Cn2cnc3c(N4CCCCC4)nc4ccccc4c32)cc1,98,,MIC99 [3]: 27.7 µM; MIC99 [4]: 13.8 µM; AUC (Rattus norvegicus [5]): 0.0274 µg·h/mL; Vdss (Rattus norvegicus [6]): 14.2 L/kg; bioavailability [7]: 3.4%
Fc1ccc(CNc2nc(N3CCCCC3)nc3ccccc23)cc1,97,7.4,
Fc1ccc(CNc2nc(C3CCCCC3)nc3ccccc23)cc1,47,15,
Fc1ccc(CNc2nc(N3CCCC3)nc3ccccc23)cc1,97,31,
c1ccc2c(NCC3CCCCC3)nc(N3CCCCC3)nc2c1,99,,
Fc1ccc(CNc2cc(N3CCCCC3)nc3ccnn23)cc1,< 30,,
Cn1cnc2c(NCc3ccc(F)cc3)nc(N3CCCCC3)nc21,< 30,,
FC(F)(F)c1ccc(CNc2nc(N3CCCCC3)nc3ccccc23)cc1,99,6.6,Activity [8]: Active; Activity [9]: Active; MIC99 [10]: 28 µM; fold change (FC) [11]: 4; MIC99 [12]: 28 µM; MIC99 [13]: 16 µM; fold change (FC) [14]: 3
OCCN(CCO)c1nc(NCc2ccc(F)cc2)c2ccccc2n1,< 30,,
Fc1ccc(CNc2nc(N3CCCCC3)nc3cccnc23)cc1,< 30,37,
Clc1ccc(Cl)c(CNc2nc(N3CCCCC3)nc3ccccc23)c1,97,,
Fc1ccc(CNc2nc(N3Cc4ccccc4C3)nc3ccccc23)cc1,78,,
OCC(Nc1cc(N2CCCCC2)nc2ccccc12)c1ccc(F)cc1 (stereo not given),55,,
c1ccc2c(CNc3nc(N4CCCCC4)nc4ccccc34)cccc2c1,97,,
Fc1ccc(CNc2nc(N3CCCCC3)nc3ccccc23)cc1F,96,,
Fc1ccc(CNc2cc(N3CCCCC3)nc3ccccc23)cc1,98,,
Fc1ccc(CNc2nc(N3CCCCC3)nc3[nH]ccc23)cc1,< 30,,
CNc1nc(NCc2ccc(F)cc2)c2ccccc2n1,44,35,
Fc1ccc(CNc2nc(CN3CCCCC3)nc3ccccc23)cc1,< 30,29,
COc1ccc2c(NCc3ccc(F)cc3)nc(N3CCCCC3)nc2c1,74,,
